Source: patent US20220267271A1, “WNT ACTIVATORS AND METHODS OF USE” (MAYO FOUNDATION FOR MEDICAL EDUCATION AND RESEARCH, priority 2019, published 2022)

Key:
Wnt/β-catenin signaling = assay: Luciferase reporter assay (Super8XTOPFlash) for Wnt/β-catenin signaling in HEK293 cells; type: cell-based; details: 24 h; for Wnt reporter activity / activation of Wnt/β-catenin signaling: HEK293 cells; for EC50: Homo sapiens, Wnt3A plasmid-transfected HEK293 cells, 30-30,000 nM, mean and SD of 3-7 independent experiments
Description: (§1) (A) structures of niciosamide and CI-994; (B) HEK293 cells were transfected with Super8XTOPFlash and β galactosidase vectors along with Wnt3A or control vector. After 24 hours incubation, cells were treated with CI-994 at the indicated concentration for 24 hr. The luciferase activity was then measured and normalized to the activity of the β-galactosidase. (C) HT1080 cells stably transduced LRP6 with HA tag were treated with niciosamide and CI-994 at the indicated concentrations for 24 h. The levels of HA-LRP6 were examined by Western blot with anti-HA antibody. (D) Western blots showing the depletion of LRP6 after 2 days of transiently transfection of 50 nM LRP6 siRNA in HEK293 cells. ON-TARGETplus double-stranded siRNA oligomers against human LRP6 and non-specific scrambled siRNA control (Stealth RNAi™ siRNA Negative Control, Med GC) were purchased from Thermo Scientific. siRNA LRP6-1, siRNA LRP6-2 and control siRNA were Thermo Scientific catalog numbers J-003845-09, J-003845-11 and 12935300, respectively. (E) HEK293 cells were transfected with LRP6 siRNAs, and after 8 h incubation were further transfected with Super8XTOPFlash construct and β galactosidase-expressing vector. After 24 h incubation, the cells were treated with CI-994 (16 μM) for 24 h. The luciferase activity was then measured and normalized to β-galactosidase activity. All the values are the average of triplicate determinations with the SD values indicated by error bars. **P<0.01 versus corresponding control value.
HEK293 cells were transfected with SuperXTOPFlash and β-galactosidase vectors along with Wnt3A or control vector. After 24 h incubation, cells were treated with 1015 or 1039 at the indicated concentrations for 24 h. The luciferase activity was then measured and normalized to the activity of the β-galactosidase. All the values are the average of triplicate determinations with the SD values indicated by error bars. This experiment is representative of at least three such experiments performed with similar data.
Luciferase reporter assay for Wnt/β-catenin signaling: HEK293 cells were plated into 24-well plates. After overnight culture, the cells were transiently transfected with the Super8XTOPFlash luciferase construct and β-galactosidase-expressing vector along with or without Wnt3A plasmid. After 24 h incubation, cells were treated with each individual compound at the indicated concentrations for 24 h. Cells were then lysed and both luciferase and β-galactosidase activities were determined. The luciferase activity was normalized to the β-galactosidase activity.
HEK293 cells were plated into 24-well plates. After overnight culture, the cells were transiently transfected with the Super8XTOPFlash luciferase construct and β-galactosidase-expressing vector along with the Wnt3A plasmid. After 24 h incubation, the cells were treated with each individual compound at 30-30,000 nM in triplication for 24 h. The cells were then lysed, and luciferase and β-galactosidase activities were determined with the luciferase assay system (Promega, Cat. #E1501) and β-galactosidase assay system (Promega, Cat. #E2000), respectively. The luciferase activity was normalized to the s-galactosidase activity, and the EC50 values were calculated by use of GraphPad software, and shown in the below table. All the EC50 values (mean and SD) are from 3-7 independent experiments.

LRP6 = assay: Wnt reporter assay in HEK293 cells after LRP6 siRNA knockdown; type: cell-based, human; details: CI-994 16 μM, 1011, 1015, 1023 1 μM, 24 h
Description: as §1
(A) HT1080 cells stably transduced with human LRP6 with HA tag were treated with niciosamide (1 μM) and other compounds as noted (1 μM) for 24 hr. The levels of HA-LRP6 were examined by Western blots with anti-HA antibody. All samples were also probed with anti-actin antibody to verify equal loading. This experiment is a representative of two such experiments performed with similar data. (B) N2a cells were treated with 1015 and 1011 at the indicated concentrations for 24 h. The expression levels of LRP6, β-catenin and actin were examined by Western blotting. This experiment is a representative of three such experiments performed with similar data. (C) HEK293 cells were transfected with LRP6 siRNAs, and after 8 h incubation were further transfected with Super8XTOPFlash construct and β galactosidase-expressing vector. ON-TARGETplus double-stranded siRNA oligomers against human LRP6 and non-specific scrambled siRNA control (Stealth RNAi™ siRNA Negative Control, Med GC) were purchased from Thermo Scientific. siRNA LRP6-1, siRNA LRP6-2 and control siRNA were Thermo Scientific catalog numbers J-003845-09, J-003845-11 and 12935300, respectively. […] The luciferase activity was then measured and normalized to β-galactosidase activity. […]

HDAC = assay: Histone Deacetylase (HDAC) activity assay (fluorometric kit); type: biochemical; details: 2 μM
Description: HDAC enzymatic activities of compounds were measured by fluorometric HDAC Activity Assay kit (Abcam. #ab156064). Trichostatin A, a known HDAC inhibitor, was used as the positive control. All the values are the average of triple determination with the s.d. indicated by error bars. **P<0.01 versus the corresponding control value.
Histone Deacetylase (HDAC) activity assay: Histone Deacetylase (HDAC) activity assay kit (ab156064) was purchased from Abcam, and the effects of the tested compounds on HDAC activity were examined according to the manufacturers specifications.

[1] = Metabolic stability in mouse liver microsomes; type: in vitro ADME; details: 2 μM, five time points over 40 min, NADPH
Description: Metabolic stability of several compounds (1009, 1011, 1015, 1020, and 1056) and 2 reference compounds (propranolol and imipramine) were determined in mouse liver microsomes at five time points over 40 min using HPLC-MS. Metabolic stability is defined as the percentage of parent compound lost over time in the presence of a metabolically active test system.
Metabolic stability in mouse liver microsomes: Mouse hepatic microsomes were isolated from pooled, perfused livers of Balb/c male mice according to the standard protocol. The batch of microsomes was tested for quality control using Imipramine, Propranolol and Verapamil as reference compounds. Microsomal incubations were carried out in 96-well plates in 5 aliquots of 40 μL each (one for each time point). Liver microsomal incubation medium contained PBS (100 mM, pH 7.4), MgCl2 (3.3 mM), NADPH (3 mM), glucose-6-phosphate (5.3 mM), glucose-6-phosphate dehydrogenase (0.67 units/ml) with 0.42 mg of liver microsomal protein per ml. Control incubations were performed replacing the NADPH-cofactor system with PBS. Test compound (2 μM, final solvent concentration 1.6%) was incubated with microsomes at 37° C., shaking at 100 rpm. Incubations were performed in duplicates. Five time points over 40 minutes had been analyzed. The reactions were stopped by adding 12 volumes of 90% acetonitrile-water to incubation aliquots, followed by protein sedimentation by centrifuging at 5500 rpm for 3 minutes. […]. Supernatants were analyzed using the HPLC system coupled with tandem mass spectrometer.
The elimination constant (kel), half-life (t1/2) and intrinsic clearance (Clint) were determined in plot of […] versus time, using linear regression analysis: […]

| SMILES | Wnt reporter activity / activation of Wnt/β-catenin signaling (Wnt/β-catenin signaling) | effect of knockdown of LRP6 expression on the compound's effect on Wnt/β-catenin signaling (LRP6) | EC50 (Wnt/β-catenin signaling) | inhibitory effects on HDAC activity (HDAC) | stability in mouse hepatic microsomal system [1] |
| --- | --- | --- | --- | --- | --- |
| CC(=O)Nc1ccc(C(=O)Nc2ccccc2N)cc1 [CI-994, 4-(acetylamino)-N-(2-aminophenyl)benzamide, reference compound] | increased | significantly attenuated | – | – | – |
| CC1CCCC(C)N1CCNC(=O)c1ccc(C(=O)Nc2ccccc2N)nc1 (centres unmarked) [Compound 1011] | – | significantly attenuated | 920 ± 455 nM | do not display any inhibitory effects | good stability |
| Nc1ccccc1NC(=O)c1ccc(C(=O)NCC2CCN2C2CCCC2)cn1 (centres unmarked) [Compound 1015] | activate | significantly attenuated | 623 ± 212 nM | do not display any inhibitory effects | good stability |
| Nc1ccccc1NC(=O)c1ccc(C(=O)NCCN2CCC3(CCCCC3)CC2)cc1 [Compound 1020] | – | – | 860 ± 278 nM | do not display any inhibitory effects | unstable |
